From a melting point compilation (Tetko et al.; mined from patent text by program, amines drawn as free bases though some values may be those of a salt)

Point of comparison: `O=C1N(c2cc(Cl)cc(Cl)c2)C(=O)C2(Cc3ccc(Br)cc3)CCC(c3ccccc3)N12` (centres undefined), melting point 72.4 °C. Against it:
- NS(=O)(=O)c1ccc(-n2nc(C(F)(F)F)c(CO)c2-c2ccccc2)cc1 — higher, 179 to 180 °C
- CC(=O)OC1CSC(Oc2cnccc2C(F)(F)F)C(OC(C)=O)C1OC(C)=O (centres undefined) — higher, 198 °C
- CCC(CC)(CC)n1ncc(C(=O)NC)c1C#N — higher, 85 to 87 °C
- CCc1cn(C2CC(O)C(CNC(=O)Cc3ccccc3NC(C)=O)O2)c(=O)[nH]c1=O (centres undefined) — higher, 266 to 267 °C
- COC(=O)c1c(OCc2ccccc2)ccc2c1CCCC2=NO — higher, 135 to 137 °C
- CN(C)C(c1ccccc1Cl)C1CCCCC1(O)c1ccc2ccccc2c1 (centres undefined) — higher, > 230 °C
- CS(=O)(=O)Nc1ccc(C=C2CCOC2=O)cc1Oc1ccc(F)cc1F — higher, 179 to 180 °C
- Cc1cnc(CCCCNc2ncc(Cc3ccc(C)nc3)c(=O)[nH]2)c(Cl)c1 — higher, 140 to 142 °C
- O=C(O)C(=O)c1ccc(SCCOc2ccc3ccccc3c2)cc1 — higher, 161 to 162 °C
- CCCC(CCC)NC(=O)Nc1ccc(OC)cc1OC — higher, 172 to 173 °C
- COc1ccc(CNS(=O)(=O)c2ccc(C(CC3CCCC3)C(=O)Nc3nc4ccc(OC)nc4s3)cc2)cc1 (centres undefined) — higher, 170 to 172 °C
- CN1C2C=C(c3c[nH]c(-c4ccc(F)cc4)c3-c3ccncc3)CC1CC2 (centres undefined) — higher, 243 to 245 °C
- O=C(O)Cc1ccc(NC(=O)Nc2ccccc2C(F)(F)F)cc1 — higher, 224 to 225 °C
- OC1c2ccc(Cl)cc2SC1Cn1ccnc1 (centres undefined) — higher, 164 to 165 °C
- COC(=O)c1ncc(C)cc1C(=O)O — higher, 200 °C
- CC(C)Cc1ccc2nc(Cl)c(S(N)(=O)=O)n2n1 — higher, 168 to 170 °C
- CN1OC(c2ccc(Cl)cc2)CC1(Cn1ccnc1)c1ccco1 (centres undefined) — higher, 99 to 101 °C
- CC(CC(=O)O)NC(=O)OCC1c2ccccc2-c2ccccc21 (centres undefined) — higher, 135 to 143 °C
- CCC(=O)Nc1nn(C)c2c1sc1ccccc12 — higher, 88 to 89 °C
- CCc1cc(OCc2ccc3oc(-c4ccccc4C(=O)O)nc3c2)c2c(n1)CCCC2 — higher, 229 to 231 °C
- CN(Cc1cccc(-c2ccc(CC3SC(=O)NC3=O)cc2)c1)C(=O)Cc1ccccc1 (centres undefined) — higher, 73 °C
- CC(C)(C)OC(=O)N1CC[C@@H](NC(=O)c2ccc(-n3cc4ccccc4n3)cc2)C1 — higher, 211 to 212 °C
- CN1CCN(CCCCCC(=O)N2c3ccccc3C(=O)Nc3cccnc32)CC1 — higher, 179 to 181 °C
- Cc1cc(O)c2cc(C)c(-c3ccc(Cl)cc3Cl)n2n1 — higher, 234 to 237 °C
- CC(C#Cc1ccc(C#N)cc1)N1C(=O)c2ccccc2C1=O (centres undefined) — higher, 138 to 142 °C
- COC(=O)c1cc(Nc2ccc(C)cc2)c(Nc2ccc(C)cc2)cc1C(=O)OC — higher, 170 to 172 °C
- CCn1cccc1C(=O)C(C#N)C(=O)Nc1ccccc1 (centres undefined) — higher, 77 to 79 °C
- CN1CC(=Cc2ccccc2Cl)C(=O)C(=Cc2ccccc2Cl)C1 — higher, 148 to 150 °C
- CCCSc1cc(C(=O)O)cc(S(N)(=O)=O)c1Oc1ccccc1 — higher, 209 to 210 °C
- Cc1cc(C)c2c(c1)NC(C)C2 (centres undefined) — higher, 75 °C
- O=C(O)CC1CCCc2c1n(Cc1ccc(Cl)cc1)c1ccc(C(F)(F)F)cc21 (centres undefined) — higher, 167 to 168 °C
- Nc1cccc2c1C(=O)c1c(O)cccc1C2=O — higher, 305 to 308 °C
- CC(Sc1cc2cc(O)ccc2[nH]1)(C(=O)O)c1ccccc1 (centres undefined) — higher, 180 to 182 °C
- Cc1c(N2C[C@@H](NC(=O)C(F)(F)F)C(C)(C)C2)c(F)c(N)c2c(=O)c(C(=O)O)cn(C3CC3)c12 — higher, 254 to 255 °C
- CC(C)(C)OC(=O)Nc1ccc(-c2ccc(-c3ccccc3)cc2)cc1N — higher, 206 to 207 °C
- Cc1csc(C)c1NC(=O)CO — higher, 85 to 87 °C
- O=C(NCCc1ccccc1)c1ccccc1-c1ccccc1CN1C(=O)c2ccccc2C1=O — higher, 156 °C
- COc1ccc(CCNC(=O)N(C)O)c(OC)c1 — higher, 83 to 84 °C
- O=C(NCc1ccc2c(c1)-c1[nH]nc(-c3ccsc3)c1C2)c1ccncc1 — higher, 278 to 281 °C
- COc1ccc2[nH]cc(CN(C)C)c2c1Cl — higher, 145 to 149 °C
- CCCCCCCCCCCCCCCCCc1nc(N)nc(N)n1 — higher, 114 to 116 °C
- Brc1cnc2c(c1)ncn2-c1cccc(-c2cccnc2)c1 — higher, 212 to 213 °C
- CCN(CC)c1ccnc2sc(C(N)=O)c(N)c12 — higher, 127 to 129 °C
- CCN(CC)CCNC(=O)c1ccc2cncc(I)c2n1 — lower, 44 to 46 °C
- CCOC(=O)COc1ccc(C(=O)Nc2ccccc2Oc2ccccc2-c2nnn[nH]2)cc1 — higher, 162 to 163 °C
- CCOC(=O)C1=C(C)N(C(C)=O)C(c2csc(C)n2)=NC1c1ccc(OC)cc1 (centres undefined) — higher, 138 to 140 °C
- N#Cc1c(F)cccc1-c1ccccc1 — higher, 78 to 79 °C
- COCc1nn(C)c(O)c1C(=O)c1ccc(S(C)(=O)=O)c(COC)c1C — higher, 100 to 104 °C
- Cn1c(N)c2ncn(C3OC(CO)C(O)C3O)c2nc1=O (centres undefined) — higher, 262 to 263 °C
- COc1cccc(S(=O)(=O)c2ccc3c(c2)[C@@H](Nc2ccnc(Cl)n2)[C@](C)(O)C(C)(C)O3)c1 — higher, 228 to 230 °C
- Fc1ccc(-c2cc(CNc3cc(C4CC=CS4)n[nH]3)n[nH]2)cc1 (centres undefined) — higher, 128 to 130 °C
- COC(=O)c1cc(S)cc(C(=O)OC)c1[N+](=O)[O-] — higher, 117 to 119 °C
- CC(C)c1ccc(-c2nc(-c3cccc(C(=O)O)c3)cs2)cc1 — higher, 193 to 195 °C
- Cc1ccc(Nc2ccc3c4c(cccc24)CC3)cc1 — higher, 96.2 to 96.8 °C
- C=CCN1C(=O)C(C)N(c2ccc(OCc3ccccc3)cc2)C1=S (centres undefined) — higher, 88 to 90 °C
- O=C(CCCCN1CCCCC1)c1ccc2oc3ccc(C(=O)CCCCN4CCCCC4)cc3c(=O)c2c1 — higher, 109 to 110 °C
- COc1ccc(S(=O)(=O)Nc2ccccc2NC(=O)c2ccccc2C)cc1 — higher, 129 to 130 °C
- Cc1c(Cl)cccc1S(=O)(=O)Nc1ccc2oncc2c1 — higher, 112 °C
- CC(C)(C)OC(=O)NC(Cc1ccccc1)C(O)C(N)Cc1ccccc1 (centres undefined) — higher, 134 to 135 °C
- Cc1cc(=O)c(-c2ccc(Cl)cc2)c(C)n1C — higher, 221 to 222 °C
- O=C(Cc1ccccc1)Nc1cc(C(=O)O)cc(C(=O)O)c1 — higher, > 300 °C
- COC(=O)c1ccc(Cl)c(C)c1N — not separable, 72 to 74 °C
- O=C(NC(Cc1ccccc1)C(=O)O)c1ccc(-c2cnc(OCc3ccccc3)nc2)cc1 (centres undefined) — higher, 184 °C
- CCn1ncc2c(ON=C(C)C)c(C(=O)c3ccc(Cl)cc3)cnc21 — higher, 112 to 113 °C
- Clc1cn2cc(Cl)c(Cl)c(Cl)c2n1 — higher, 232 to 233 °C
- CN1CCC2(CC1)C(=O)N(C)c1ccc(Cl)cc1C(c1ccccc1)N2C (centres undefined) — higher, 80 to 85 °C
- Nc1nc(N)c(C(=O)N=CNN2CCSCC2)nc1Cl — higher, 234 to 236 °C
- C=CCc1cccc2nc(Cc3ccccc3Cl)oc12 — lower, 61 to 62 °C
- CCc1nc2c(C)cc(C)nc2n1Cc1ccc(C(=Cc2nnn[nH]2)c2ccc(C(F)(F)F)cc2)cc1 — higher, 124 to 129 °C
- O=C(O)CCCOc1cccc(CCCCCCOc2ccc3c(c2CCCc2ccccc2)OCCC3=O)c1CCC(=O)O — higher, 104 to 106 °C
- CC(C)(C)OC(=O)N1CCC(Nc2ccc3nc(NC(=O)c4ccc(C(C)(C)C)cc4)cn3n2)C1 (centres undefined) — higher, 264 to 265 °C
- O=C1c2c(-c3ccccc3)c3cc(Cl)ccc3n2CCN1CCN1CCCC1 — higher, 134 to 136 °C
- O=C(CCCN1CCc2ccccc2C1)c1ccc(F)cc1 — lower, 69 to 71 °C
- O=C(OC1CCCCCCCCCCC1)c1ccccc1C(=O)OC1CCCCCCCCCCC1 — lower, 66 to 68 °C
- C=CC(C)=CC=C(C(C)=CC(=O)OC1C(CO)OC(OC)C(O)C1O)c1c(C)cc(OC)c(C)c1C (centres undefined) — higher, 159 to 160 °C
- CCCCc1cnc2ccccc2c1Cc1ccc(C(=O)O)cc1 — higher, 233 °C
- Cn1c(COc2ccc(CC(OCc3ccc(F)cc3)C(=O)O)cc2)nc2ccc(Oc3ccc(C45CC6CC(CC(C6)C4)C5)cc3)cc21 (centres undefined) — higher, 148 to 149 °C
- CCCCCCCc1ccc(-c2ncc(C#N)c(Cl)n2)cc1 — higher, 76.3 to 76.8 °C
- Cc1nc(C)c(Cl)c(NCCCSc2ccnc(CNc3nc(C)nc(C)c3Cl)c2C)n1 — higher, 170 to 174 °C
- O=C(O)/C=C/c1cccc(-c2nc3c(=O)n(CC4CCCCC4)c(=O)n(CC4CCCCC4)c3[nH]2)c1 — higher, > 350 °C
- Cc1cc(-c2cc(Br)n(C)n2)c(C)[nH]1 — lower, 66 to 69 °C
- CC1(C)CCC(C)(C)c2cc(C(F)C(=O)O)ccc21 (centres undefined) — higher, 127 to 128 °C
- COC(=O)N(C(=O)Cl)c1ccc(OC(F)(F)F)cc1 — higher, 97 to 99 °C
- CC(=O)Nc1ccc(/C=C/C(=O)NC/C=C(/C)c2ccc(C)c(CO)c2C)cn1 — higher, 160 to 165 °C
- CCC(C)CCCCCCCCCCCCCCCCC(=O)O (centres undefined) — lower, 53 °C
- Cc1sc(N2C(=O)OCC2(C)C)nc1-c1ccc(Br)cc1 — higher, 175 to 176 °C
- O=C1C(O)SCN1c1cccc([N+](=O)[O-])c1 (centres undefined) — higher, 129 to 131 °C
- CC(C)c1ccc(N(Cc2ccc(N(C)C)cc2)C(=O)C2CCCc3c(O)ccc(F)c32)cc1 (centres undefined) — higher, 209 °C
- CCN(CC)C(=O)C(C)Cc1nc(-c2ccccc2)cc2ccccc12 (centres undefined) — lower, 57 °C
- COc1ccc2cc3c(c(-c4ccc5c(c4)OCO5)c2c1)CNC3=O — higher, 259 to 262 °C
- CCOC(=O)c1ccc2c(=O)n3cc(C(=O)O)ccc3nc2c1 — higher, 275 to 324 °C
- O=c1nc(-c2cccc(CN3CCC(c4ccccc4)CC3)n2)sc2ccccc12 — higher, 207 to 208 °C
- CCc1[nH][nH]c(=O)c1Cc1ccc2ccccc2c1 — higher, 145 to 147 °C
- N#CC1CCCc2cc3c(nc21)CCCC3 (centres undefined) — higher, 88 to 90 °C
- CN1CCCc2cc(CC3SC(=O)NC3=O)ccc21 (centres undefined) — higher, 122 to 125 °C
- COc1cccc(-c2c(Cl)c(CCl)nc3sc4c(c23)CCN(Cc2ccccc2)C4)c1OC — higher, 137 to 138 °C
- O=C(Nc1c(C(O)(C(F)(F)F)C(F)(F)F)ccc2ccccc12)c1cnc2ccccc2n1 — higher, > 240 °C
- N#CCCNC(=O)c1cc(F)cc(-c2cccc3cc(Cc4cc(F)cc(Cl)c4)sc23)c1 — higher, 113 to 114 °C
